From patent publication US4730005A, “Leukotriene antagonist” (SmithKline Beckman Corporation, priority 1986, dated 1988)

What follows are compounds tested against T1, leukotriene D4 (LTD4) induced contraction of guinea pig tracheal tissues (Cavia porcellus, UniProt Q2NNR5) (assay: in vitro inhibition of LTD4 induced contraction of guinea pig tracheal spiral strips). Conditions: guinea pig trachea, LTD4 agonist, 30 min pretreatment with test compound.
T1 construct: Guinea pig (adult male albino Hartley strain) tracheal spiral strips; from tissue; host or cells: guinea pig trachea (spiral strips, adult male albino Hartley strain)
T1 sequence (Q2NNR5 1-340): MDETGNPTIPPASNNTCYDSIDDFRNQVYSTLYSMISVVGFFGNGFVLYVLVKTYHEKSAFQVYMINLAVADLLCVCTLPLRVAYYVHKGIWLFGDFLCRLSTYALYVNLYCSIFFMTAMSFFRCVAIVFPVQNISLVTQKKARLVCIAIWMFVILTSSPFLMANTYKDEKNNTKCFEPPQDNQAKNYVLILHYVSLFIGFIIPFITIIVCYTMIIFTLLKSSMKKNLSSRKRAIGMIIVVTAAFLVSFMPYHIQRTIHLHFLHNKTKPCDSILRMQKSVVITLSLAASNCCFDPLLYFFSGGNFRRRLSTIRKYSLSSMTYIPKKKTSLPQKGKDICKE
Type: cell-based, guinea pig (adult male albino Hartley strain)
Experimental: The leukotriene antagonist activity of the compounds of this invention is measured by the ability of the compounds to inhibit the leukotriene induced contraction of guinea pig tracheal tissues in vitro and to inhibit leukotriene induced bronchoconstriction in guinea pigs in vivo. The following methodologies were employed: In vitro: Guinea pig (adult male albino Hartley strain) tracheal spiral strips of approximate dimensions 2 to 3 mm cross-sectional width and 3.5 cm length were bathed in modified Krebs buffer in jacketed 10 ml tissue bath and continously aerated with 95% 02 /5% CO2. The tissues were connected via silk suture to force displacement transducers for recording isometric tension. The tissues were equilibrated for 1 hr., pretreated for 15 minutes with meclofenamic acid (1 μM) to remove intrinsic prostaglandin responses, and then pretreated for an additional 30 minutes with either the test compound or vehicle control. A cumulative concentration-response curve for LTD4 on triplicate tissues was generated by successive increases in the bath concentration of the LTD4. In order to minimize intertissue variability, the contractions elicited by LTD4 were standardized as a percentage of the maximum response obtained to a reference agonist, carbachol (10 μM). Calculations: The averages of the triplicate LTD4 concentration-response curves both in the presence and absence of the test compound were plotted on log graph paper. The concentration of LTD4 needed to elicit 30% of the contraction elicited by carbachol was measured and defined as the EC30. The -log KB value for the test compound was determined by the following equations: [formula] In vivo: Anesthetized, spontaneously breathing guinea pigs (Adult male albino Hartley strain) were monitored on a Buxco pulmonary mechanics computer. Changes in airway resistance (RL) were calculated by the computer on a breath-by-breath basis at isovolumic points from signals measuring airflow and transpulmonary pressure using differential pressure transducers. Animals received either test compound or vehicle control intravenously via the jugular vein. LTD4 was then injected into the jugular vein. The bronchoconstriction produced was reflected by % changes in airways resistance relative to the baseline values obtained prior to injection of the test compound or vehicle control. Each guinea pig received either vehicle control or test compound.

Row | Kb [nM] | SMILES
1 | 1260 | CCCCCCCCCCCCc1ccccc1C(SCC(=O)O)SCC(=O)O [1 1 C12 H25 H, 3,5-dithia-4-(2-dodecylphenyl)heptanedioic acid]
2 | 631 | O=C(O)CCSC(SCCC(=O)O)c1ccccc1CCCCCC/C=C\c1ccccc1 [2 2 (CH2)6CHCHphenyl H, 4,6-Dithia-5-[2-(8-phenyl-7(Z)-octenyl)phenyl]nonanedioic acid]
3 | 398 | O=C(O)CCSC(SCCC(=O)O)c1ccccc1CCCCCCCSc1ccccc1 [2 2 C7 H4 S phenyl H, 4,6-Dithia-5-[2-(7-phenylthioheptyl)phenyl]nonanedioic acid]
4 | 3160 | O=C(O)CCSC(SCCC(=O)O)c1ccccc1CCCCCCCCC1CCCCC1 [2 2 C8 H16 cyclohexyl H, 4,6-Dithia-5-[2-(8-cyclohexyloctyl)phenyl]nonanedioic acid]
5 | 251 | O=C(O)CCSC(SCCC(=O)O)c1cc(C(F)(F)F)ccc1CCCCCCCCc1ccccc1 [2 2 C8 H16 phenyl CF3, 4,6-Dithia-5-[2-(8-phenyloctyl)-5-trifluoromethylphenyl]nonanedioic acid]
6 | 631 | O=C(O)CCSC(SCCC(=O)O)c1ccccc1CCCCCCCCc1ccc(C(F)(F)F)cc1 [2 2 C8 H16(4-CF3 phenyl) H, 4,6-Dithia-5-[2-(8-(4-trifluoromethylphenyl)octyl)phenyl]nonanedioic acid]
7 | 6310 | CCCCCCCCc1ccccc1C(SCCC(=O)O)SCCC(=O)O [2 2 C8 H17 H, 4,6-dithia-5-(2-octylphenyl)nonanedioic acid]
8 | 398 | C#CCCCCCCCCCCc1ccccc1C(SCCC(=O)O)SCCC(=O)O [2 2 C10 H20 CCH H, 4,6-Dithia-5-[2-(11-dodecynyl)phenyl]nonanedioic acid]
9 | 316 | CCCCCCCCCCc1ccccc1C(SCCC(=O)O)SCCC(=O)O [2 2 C10 H21 H, 4,6-dithia-5-(2-decylphenyl)nonanedioic acid]
10 | 631 | O=C(O)CCSC(SCCC(=O)O)c1ccccc1CCCCCCCCCCCC(F)(F)F [2 2 C11 H22 CF3 H, 4,6-Dithia-5-[2-(12,12,12-trifluorododecyl)phenyl]nonanedioic acid]
11 | 631 | CCCCCCCCCCCCc1ccccc1C(SCCC(=O)O)SCCC(=O)O [2 2 C12 H25 H, 4,6-Dithia-5-(2-dodecylphenyl)nonanedioic acid]
12 | 794 | CCCCCCCCCCC#Cc1ccccc1C(SCCC(=O)O)SCCC(=O)O [2 2 CCC10 H21 H, 4,6-Dithia-5-[2-(1-dodecyn-1-yl)phenyl]nonanedioic acid]
13 | 1580 | CCCCCCCCCC/C=C/c1ccccc1C(SCCC(=O)O)SCCC(=O)O [2 2 CHCHC10 H21 trans H, 4,6-Dithia-5-[2-(1-trans-dodecenyl)phenyl]nonanedioic acid]
14 | 1000 | O=C(O)CCSC(SCCC(=O)O)c1cccc(CCCCCCCCc2ccccc2)c1 [2 2 H C8 H16 phenyl, 4,6-dithia-5-[3-(8-phenyloctyl)phenyl]nonanedioic acid]
15 | 1260 | CCCCCCCCCOc1cccc(C(SCCC(=O)O)SCCC(=O)O)c1 [2 2 H OC9 H19, 4,6-dithia-5-(3-nonyloxyphenyl)nonanedioic acid]
16 | 794 | CCCCCCCCCCCOc1cccc(C(SCCC(=O)O)SCCC(=O)O)c1 [2 2 H OC11 H23, 4,6-dithia-5-(3-undecyloxyphenyl)nonanedioic acid]
17 | 794 | CCCCC/C=C\C/C=C\COc1cccc(C(SCCC(=O)O)SCCC(=O)O)c1 [2 2 H OCH2 CHCHCH2 CHCHC5 H11, 4,6-dithia-5-[3-(2(Z),5(Z)-undecadienyloxy)phenyl]nonanedioic acid]
18 | 5010 | O=C(O)CCSC(SCCC(=O)O)c1ccccc1OCCCCCCc1ccccc1 [2 2 OC6 H12 phenyl H, 4,6-Dithia-5-[2-(6-phenylhexyloxy)phenyl]nonanedioic acid]
19 | 1580 | CCCCCCCCCOc1ccccc1C(SCCC(=O)O)SCCC(=O)O [2 2 OC9 H19 H, 4,6-dithia-5-(2-nonyloxyphenyl)nonanedioic acid]
20 | 1000 | CCCCCCCCCCCOc1ccc(Br)cc1C(SCCC(=O)O)SCCC(=O)O [2 2 OC11 H23 Br, 4,6-dithia-5-(5-bromo-2-undecyloxyphenyl)nonanedioic acid]
21 | 1260 | CCCCCCCCCCCOc1ccc(OC)cc1C(SCCC(=O)O)SCCC(=O)O [2 2 OC11 H23 CH3 O, 4,6-dithia-5-(5-methoxy-2-undecyloxyphenyl)nonanedioic acid]
22 | 794 | CCCCCCCCCCCOc1ccc([N+](=O)[O-])cc1C(SCCC(=O)O)SCCC(=O)O [2 2 OC11 H23 NO2, 4,6-dithia-5-(5-nitro-2-undecyloxyphenyl)nonanedioic acid]
23 | 1000 | CCCCCCCCCCCOc1ccc(O)cc1C(SCCC(=O)O)SCCC(=O)O [2 2 OC11 H23 OH, 4,6-dithia-5-(5-hydroxy-2-undecyloxyphenyl)nonanedioic acid]
24 | 1000 | CCCCC/C=C\C/C=C\COc1ccccc1C(SCCC(=O)O)SCCC(=O)O [2 2 OCH2CHCHCH2CHCHC5 H11 H, 4,6-dithia-5-[2-(2(Z),5(Z)-undecadienyloxy)phenyl]nonanedioic acid]
25 | 1000 | CCCCCCCCCCCSc1ccccc1C(SCCC(=O)O)SCCC(=O)O [2 2 SC11 H23 H, 4,6-Dithia-5-(2-undecylthiophenyl)nonanedioic acid]
26 | 2510 | CCCCc1ccc(CCCCc2ccccc2C(SCCC(=O)O)SCCC(=O)O)cc1 [2 2 [drawing 19] H, 4,6-Dithia-5-[2-(4-(4-butylphenyl)butyl)phenyl]nonanedioic acid]
27 | 5010 | CCCCCCCCCCCOc1ccccc1C(C)(SCCC(=O)O)SCCC(=O)O [4,6-dithia-5-methyl-5-(2-undecyloxyphenyl)nonanedioic acid]
28 | 1580 | CCCCCCCCCCCCc1ccccc1C(SCCC(=O)O)[S+]([O-])CCC(=O)O (centres unmarked) [5-(2-dodecylphenyl)-4-sulfinyl-6-thianonanedioic acid]
29 | 1260 | CCCCCCCCCCCCc1ccsc1C(SCCC(=O)O)SCCC(=O)O [Formula (V) 2 2 C12 H25 H, 4,6-dithia-5-(3-dodecyl-2-thienyl)nonanedioic acid]
30 | 3160 | CCCCCCCCCCCCc1csc(C(SCCC(=O)O)SCCC(=O)O)c1 [Formula (V) 2 2 H C12 H25, 4,6-Dithia-5-(4-dodecyl-2-thienyl)nonanedioic acid]

Row | SMILES | Kb [nM]
31 | CCCc1c(OCCCCCOc2ccccc2C(SCCC(=O)O)SCCC(=O)O)ccc(C(C)=O)c1O [4,6-Dithia-5-[2-(5-(4-acetyl-3-hydroxy-2-propylphenoxy)-pentoxy)phenyl]nonanedioic acid] | 251

Each compound was assayed on LTD4 induced bronchoconstriction in guinea pigs (assay: in vivo inhibition of LTD4 induced bronchoconstriction (airway resistance RL) in guinea pigs). Conditions: 5 mg/kg, intravenous.
Set-up: species or system guinea pig (adult male albino Hartley strain)
Experimental: The leukotriene antagonist activity of the compounds of this invention is measured by the ability of the compounds to inhibit the leukotriene induced contraction of guinea pig tracheal tissues in vitro and to inhibit leukotriene induced bronchoconstriction in guinea pigs in vivo. The following methodologies were employed: In vitro: Guinea pig (adult male albino Hartley strain) tracheal spiral strips of approximate dimensions 2 to 3 mm cross-sectional width and 3.5 cm length were bathed in modified Krebs buffer in jacketed 10 ml tissue bath and continously aerated with 95% 02 /5% CO2. The tissues were connected via silk suture to force displacement transducers for recording isometric tension. The tissues were equilibrated for 1 hr., pretreated for 15 minutes with meclofenamic acid (1 μM) to remove intrinsic prostaglandin responses, and then pretreated for an additional 30 minutes with either the test compound or vehicle control. A cumulative concentration-response curve for LTD4 on triplicate tissues was generated by successive increases in the bath concentration of the LTD4. In order to minimize intertissue variability, the contractions elicited by LTD4 were standardized as a percentage of the maximum response obtained to a reference agonist, carbachol (10 μM).
Calculations: The averages of the triplicate LTD4 concentration-response curves both in the presence and absence of the test compound were plotted on log graph paper. The concentration of LTD4 needed to elicit 30% of the contraction elicited by carbachol was measured and defined as the EC30. The -log KB value for the test compound was determined by the following equations: [formula] In vivo: Anesthetized, spontaneously breathing guinea pigs (Adult male albino Hartley strain) were monitored on a Buxco pulmonary mechanics computer. Changes in airway resistance (RL) were calculated by the computer on a breath-by-breath basis at isovolumic points from signals measuring airflow and transpulmonary pressure using differential pressure transducers. Animals received either test compound or vehicle control intravenously via the jugular vein. LTD4 was then injected into the jugular vein. The bronchoconstriction produced was reflected by % changes in airways resistance relative to the baseline values obtained prior to injection of the test compound or vehicle control. Each guinea pig received either vehicle control or test compound.
Calculations: The average of 3-6 animals per treatment was calculated using the % changes in the pulmonary parameters for control and test compound-treated animals. The average % inhibition by the test compound was calculated from the following equation: [formula]

Row | SMILES | % Inhibition of RL [%]
32 | CCCCCCCCCCc1ccccc1C(SCCC(=O)O)SCCC(=O)O [2 2 C10 H21 H, 4,6-dithia-5-(2-decylphenyl)nonanedioic acid] | 60.7
33 | O=C(O)CCSC(SCCC(=O)O)c1ccccc1CCCCCCCCCCCC(F)(F)F [2 2 C11 H22 CF3 H, 4,6-Dithia-5-[2-(12,12,12-trifluorododecyl)phenyl]nonanedioic acid] | 30.4
34 | CCCCCCCCCCCCc1ccccc1C(SCCC(=O)O)SCCC(=O)O [2 2 C12 H25 H, 4,6-Dithia-5-(2-dodecylphenyl)nonanedioic acid] | 96.5

Same assay, conditions: 10 mg/kg, intravenous

Row | SMILES | % Inhibition of RL [%]
35 | O=C(O)CCSC(SCCC(=O)O)c1ccccc1OCCCCCCc1ccccc1 [2 2 OC6 H12 phenyl H, 4,6-Dithia-5-[2-(6-phenylhexyloxy)phenyl]nonanedioic acid] | 26.4
